How the values were obtained:
CCRF-CEM = experiment: Cytotoxic activity, MTT method, 48 h; assay type: cell-based; conditions: for GI50 / TGI: CCRF-CEM, 48 h, MTT
Description: (§1) Human cancer cell lines were used for in vitro drug testing. The cells were maintained as exponentially proliferating suspension cultures in RPMI-1640 medium (supplemented with 10% heat inactivated foetal calf serum, 2mM L-Glutamine and 50 μg/ml gentamycin and incubated at 37° C., in a humidified atmosphere with 5% CO2. Peripheral blood mononuclear cells (PBML) were also isolated from normal donors using the Ficoll-Hypaque method and cultured as the cancer cell lines.
(§2) To determine the cytotoxicity, log-phase cells from each cell line, resting and activated PBML (1×10^6 cells/ml), were incubated with free compound or liposomal formulation for 48 h, in 96-well flat-bottomed micro plates.
(§3) The initial inoculation densities for each cell line are presented in table (1) and were determined taking into account cell mass and growth rate (Monks A., Scudiero, D., Skehan P., Shomaker R., Pauli K., Vistica D., Hose C et al. Feasibility of a High-Flux Anticancer Drug screen using a diverse panel of cultured human tumor cell lines. JNCI 1991; 83(11): 757-766 Paul K D, Shomaker R H, Hodes L, Monks A, Scudiero D A, Rubinstein L., Plowman J and Boyd M R. Tumor Cell Lines: Development of Mean Graph and Compare Algorithm. JNCI 1989; 81(14): 1088-1092). Viability of the cells was assessed by trypan blue dye exclusion, at the beginning of the experiment and was always greater than 98%.
(§4) Cells were added at the appropriate inoculation densities in 96-well micro titer plates and preincubated for 24 hours in a moist atmosphere of 5% CO2 in air at 37 °C, to allow stabilization prior to addition of the test compounds. To determine their activity, the free compound or liposomal formulation were added at the same time to each cell line. Cultures, where an equivalent amount of DMSO was added, used as controls. After the addition of the test agents the cells were cultured in micro plates for an additional 48 h under the same conditions. Each test agent was inoculated at five concentrations (10−4 to 10−8 M). The activity for each compound on each cell line was determined by the MTT method with modifications. Briefly 4 h before the end of the 48 h incubation period, MTT (3-(4,5-dimethylthiazol-2-yl)-2-5 diphenyl tetrazolium bromide, Sigma-Aldrich) dissolved in PBS (Phosphate buffered saline), was added in the cell cultures to give a final concentration of 50 μg/ml. At the end of the 48 h incubation period, DMSO was added to the wells and the optical density was measured with an ANTHOS HT II Microelisa reader, using a test wavelength of 550 nm.
(§5) The data represent the means of experiments done in triplicates and were analyzed using a two-tailed Student's t-test.
(§6) Three parameters GI50, TGI and LC50 were estimated using the MTT method. […] TGI is the concentration of the test agent where 100*(T−T0)/(C−TO)=0 and measures the cytostatic effect. Finally LC50 is the concentration of the drug where 100*(T−TO)/TO=−50 and measures the cytotoxic effect of the drug. At the above formulas used for the calculation of the three parameters, T is the optical density of the test well after a 48 h period of exposure to test compound; TO is the optical density at the time zero (when the drug is added) and C is the optical density of the control well (cells incubated for 48 h with no additives).
(§7) The leukemic cell lines CCRF-CEM, MOLT4, HUT78 (T cells), RPMI 8226 (B cell line), HL60 (promyelocytic cell line), K562 (proerythrocytes) and the multi-drug resistant (MDR) cell lines: CCRF-CEM/C2, HL60/MXl and HL601MX2 were used. All cell lines were grown and tested for viability as described above. Free compounds and encapsulated (as described above) were tested according to the method described under cytotoxic activity (see Biological activity, above).

RPMI 8226 = experiment: Cytotoxic activity, MTT method, 48 h; assay type: cell-based; conditions: for GI50 / TGI: RPMI 8226, 48 h, MTT
Description: as §1, §2, §3, §4, §5, §6, §7

HUT78 = experiment: Cytotoxic activity, MTT method, 48 h; assay type: cell-based; conditions: for GI50 / TGI: HUT78, 48 h, MTT
Description: as §1, §2, §3, §4, §5, §6, §7

K562 = experiment: Cytotoxic activity, MTT method, 48 h; assay type: cell-based; conditions: for GI50 / TGI: K562, 48 h, MTT
Description: as §1, §2, §3, §4, §5, §6, §7

HL60 = experiment: Cytotoxic activity, MTT method, 48 h; assay type: cell-based; conditions: for GI50 / TGI: HL60, 48 h, MTT
Description: as §1, §2, §3, §4, §5, §6, §7

MOLT4 = experiment: Cytotoxic activity, MTT method, 48 h; assay type: cell-based; conditions: for GI50 / TGI: MOLT4, 48 h, MTT
Description: as §1, §2, §3, §4, §5, §6, §7

[1] = tested on: leukemic cell lines (MEAN); experiment: Cytotoxic activity, MTT method, mean over the leukemic cell lines; assay type: cell-based; conditions: for GI50 / TGI: MEAN of the nine leukemic cell lines
Description: as §1, §2, §3, §4, §5, §6, §7

CCRF-CEM/C2 = assay type: cell-based; conditions: for GI50 / TGI: CCRF-CEM/C2 (MDR), 48 h, MTT
Description: as §1, §2
(§8) The initial inoculation densities for each cell line are presented in table (1) and were determined taking into account cell mass and growth rate (Monks A., Scudiero, D., Skehan P., Shomaker R., Pauli K., Vistica D., Hose C et al. Feasibility of a High-Flux Anticancer Drug screen using a diverse panel of cultured human tumor cell lines. JNCI 1991; 83(11): 757-766 Paul K D, Shomaker R H, Hodes L, Monks A, Scudiero D A, Rubinstein L., Plowman J and Boyd M R. Tumor Cell Lines: Development of Mean Graph and Compare Algorithm. JNCI 1989; 81(14): 1088-1092).
as §4, §5, §6, §7
(§9) The Resistant Factor (RF) is defined as follows: GI50 of the MDR daughter cell line/GI50 of the parental cell line. The (−) represents a parental cell line more resistant than the daughter MDR line.

HL60/MX1 = assay type: cell-based; conditions: for GI50 / TGI: HL60/MX1 (MDR), 48 h, MTT
Description: as §1, §2, §8, §4, §5, §6, §7, §9

HL601/MX2 = assay type: cell-based; conditions: for GI50 / TGI: HL601/MX2 (MDR), 48 h, MTT
Description: as §1, §2, §8, §4, §5, §6, §7, §9

PBML (stimulating) = assay type: cell-based, human; conditions: for GI50 / TGI: normal PBML, activated by 5 μg/ml PHA-P, 48 h, MTT
Description: as §1, §2, §4, §5, §6, §7

PBML (resting) = assay type: cell-based, human; conditions: for GI50 / TGI: normal PBML, resting, 48 h, MTT
Description: as §1, §2, §4, §5, §6, §7

SF-268 (CNS cancer) = experiment: Growth percentages at 100 μM; assay type: cell-based, human
Description: as §1, §4
(§10) Three parameters GI50, TGI and LC50 were estimated using the MTT method. […] TGI is the concentration of the test agent where 100*(T−T0)/(C−TO)=0 and measures the cytostatic effect. Finally LC50 is the concentration of the drug where 100*(T−TO)/TO=−50 and measures the cytotoxic effect of the drug. […]

NCI-H460 (Lung cancer) = experiment: Growth percentages at 100 μM; assay type: cell-based, human
Description: as §1, §4, §10

MCF-7 (Breast cancer) = experiment: Growth percentages at 100 μM; assay type: cell-based, human
Description: as §1, §4, §10

Row | SMILES | CC50 (CCRF-CEM) [µM] | GI50 (CCRF-CEM) [µM] | TGI (CCRF-CEM) [µM] | CC50 (RPMI 8226) [µM] | GI50 (RPMI 8226) [µM] | TGI (RPMI 8226) [µM] | CC50 (HUT78) [µM] | GI50 (HUT78) [µM] | TGI (HUT78) [µM] | CC50 (K562) [µM] | GI50 (K562) [µM] | TGI (K562) [µM] | CC50 (HL60) [µM] | GI50 (HL60) [µM] | TGI (HL60) [µM] | CC50 (MOLT4) [µM] | GI50 (MOLT4) [µM] | TGI (MOLT4) [µM] | CC50 [1] [µM] | GI50 [1] [µM] | also measured
1 | CC(=CCO)CC[C@@H]1[C@@]2(C)CCCC(C)(C)[C@@H]2CC[C@@]1(C)O [Label-13-ene-8, 15 diol, labd-13-ene-8α,15-diol] | 200 | 75.7 | 141.08 | 118 | 42.2 | 80.08 | 200 | 109 | 186 | 200 | 87.1 | 159 | 91.8 | 47.7 | 69.74 | 120 | 32.3 | 76.22 | 139 | 59.1 | TGI [1]: 104.48 µM; CC50 (CCRF-CEM/C2): 108 µM; GI50 (CCRF-CEM/C2): 42.3 µM; TGI (CCRF-CEM/C2): 74.96 µM; CC50 (HL60/MX1): 108 µM; GI50 (HL60/MX1): 52.3 µM; TGI (HL60/MX1): 80.1 µM; CC50 (HL601/MX2): 102 µM; GI50 (HL601/MX2): 43.8 µM; TGI (HL601/MX2): 73.14 µM; CC50 (PBML (stimulating)): > 100 µM; GI50 (PBML (stimulating)): 66.2 µM; TGI (PBML (stimulating)): >>100 μM; CC50 (PBML (resting)): > 100 µM; GI50 (PBML (resting)): > 100 µM; TGI (PBML (resting)): >>100 μM; Growth Percentages (SF-268 (CNS cancer)): −88%; Growth Percentages (NCI-H460 (Lung cancer)): −80%; Growth Percentages (MCF-7 (Breast cancer)): −89%
2 | CC(=O)OCC=C(C)CC[C@@H]1[C@@]2(C)CCCC(C)(C)[C@@H]2CC[C@@]1(C)O [Label-13-ene-8, 15-yl acetate, labd-13-ene,8α-ol,15-yl acetate] | 187 | 69.1 | 128.17 | 95.5 | 41.3 | 68.43 | 200 | 95.2 | 164.00 | 200 | 78.2 | 162.00 | 89.3 | 44.8 | 67.04 | 137 | 42.8 | 89.95 | 136 | 56.8 | TGI [1]: 100.94 µM; CC50 (CCRF-CEM/C2): 111 µM; GI50 (CCRF-CEM/C2): 46.8 µM; TGI (CCRF-CEM/C2): 78.83 µM; CC50 (HL60/MX1): 106 µM; GI50 (HL60/MX1): 53.9 µM; TGI (HL60/MX1): 80.14 µM; CC50 (HL601/MX2): 101 µM; GI50 (HL601/MX2): 38.8 µM; TGI (HL601/MX2): 69.90 µM; CC50 (PBML (stimulating)): > 100 µM; GI50 (PBML (stimulating)): 65.9 µM; TGI (PBML (stimulating)): >>100 μM; CC50 (PBML (resting)): > 100 µM; GI50 (PBML (resting)): > 100 µM; TGI (PBML (resting)): >>100 μM
3 | C=C[C@](C)(O)CC[C@@H]1[C@@]2(C)CCCC(C)(C)[C@@H]2CC[C@@]1(C)O [Label-14-ene-8, 13 diol, labd-14-ene-8,13-diol] | 85 | 35 | 60.00 | 70.7 | 14.9 | 42.84 | 78.5 | 33.7 | 56.09 | 79.3 | 35.6 | 57.45 | 80 | 41.5 | 60.72 | 77.7 | 31.6 | 54.66 | 78.3 | 32.9 | TGI [1]: 55.58 µM; CC50 (CCRF-CEM/C2): 75.8 µM; GI50 (CCRF-CEM/C2): 29.1 µM; TGI (CCRF-CEM/C2): 52.41 µM; CC50 (HL60/MX1): 80.9 µM; GI50 (HL60/MX1): 42.9 µM; TGI (HL60/MX1): 61.90 µM; CC50 (HL601/MX2): 76.8 µM; GI50 (HL601/MX2): 31.4 µM; TGI (HL601/MX2): 54.12 µM; CC50 (PBML (stimulating)): 89 µM; GI50 (PBML (stimulating)): 33.1 µM; TGI (PBML (stimulating)): 61.0 µM; CC50 (PBML (resting)): 93.1 µM; GI50 (PBML (resting)): 34.6 µM; TGI (PBML (resting)): 63.8 µM

Reference: patent USRE39061E1, “Pharmaceutical formulations comprising labdanes for the treatment of tumors or leukemias” (Medexis S.A., priority 1999, dated 2006)
